Read-outs that look alike come from different tables or passages of the source.

A short description of data set [1]: Absorbance maximum and extinction coefficient. The settings on record: for ε (extinction coefficient): pH 7.2, at 480 nm. Format: physicochemical. The protocol:
First, the extinction coefficient of compounds 1-9 and 14 was determined. Stock solutions (5×10^-3 M) of each dye were made by dissolving the dye in two equivalents of 0.1 N NaOH and making up the volume with carbonate/bicarbonate buffer (0.16, 0.34 M, pH 9.5). The solution was diluted ([…]) in additional buffer (final pH 9.5-10) and the absorbance spectrum measured. A stock solution (1.2×10^-3 M) of Vita Blue was prepared in DMSO, diluted into citrate buffer (0.1 M, pH 5 2) to give a final concentration of 1.6×10^-5 M and the absorbance spectrum measured. A stock solution (8.2×10^-3 M) of VBDB was prepared in DMSO and diluted into pyrophosphate buffer (0.1 M, pH 7.2) to give a final concentration of 8.1×10^-5 M and the absorbance spectrum measured on a Beckman model DU-6UV visible spectrophotometer.
(§1) Finally, the spectral characteristics of compounds 1-9 was determined. The extinction coefficients and quantum yields or compounds 1-9 were determined at pH 9.5. The extinction coefficient and quantum yield of monoprotonated Vita Blue was also determined at pH 5.2. The extinction coefficient and the quantum yield of VBDB were determined at pH 7.2.

Data set [2] in a line: Fluorescence emission maximum and quantum yield. In kind it is physicochemical. How it is done:
Second, quantum yields of compounds 1-9 and 14 were measured. Solutions (1×10^-6 M) of compounds 1-9 were prepared in carbonate/ bicarbonate buffer (pH 9.5). Fluorescence emission spectra were measured on a Perkin-Elmer MPF-2A fluorescence spectrophotometer in 3-mL disposable plastic cuvettes. The excitation wavelength was set 30 nm to the red of the maximum excitation wavelength and the emission spectra measured. The area under the emission spectrum was measured (F). The quantum yield (.PHI.) was determined using the following equation, F-kIo .PHI.εcb, where F is the fluorescence, k is a fluorimeter constant, Io is the light intensity at the exciting wavelength, ε is the extinction coefficient at the exciting wavelength, c is the concentration of the dye, and b is the pathlength of the cuvette. The value of k was determined for three different emission wavelength regions by using literature values of .PHI. and measuring the fluorescence of fluorescein (470-670 nm, .PHI.=0.92), eosin (500-700 nm, .PHI.=0.19) and allophycocyanin (Applied BioSystems, 600-800 nm, .PHI.=0.68). The value of Io was determined from a table that was generated by scanning the range of exciting wavelengths on the fluorescence spectrophotometer with the emission monochrometer open; a piece of white paper was placed in the sample holder to reflect the exciting light. The concentration of the dyes were 0.6-1.0 uM; this value in each case was below the concentration ([…]) required in order for the equation to be valid.
as §1

Data set [3] concerns the target T1, pig liver esterase (E.C. 3.1.1.1) (Sus scrofa, UniProt Q29550).
T1 sequence (Q29550 19-566): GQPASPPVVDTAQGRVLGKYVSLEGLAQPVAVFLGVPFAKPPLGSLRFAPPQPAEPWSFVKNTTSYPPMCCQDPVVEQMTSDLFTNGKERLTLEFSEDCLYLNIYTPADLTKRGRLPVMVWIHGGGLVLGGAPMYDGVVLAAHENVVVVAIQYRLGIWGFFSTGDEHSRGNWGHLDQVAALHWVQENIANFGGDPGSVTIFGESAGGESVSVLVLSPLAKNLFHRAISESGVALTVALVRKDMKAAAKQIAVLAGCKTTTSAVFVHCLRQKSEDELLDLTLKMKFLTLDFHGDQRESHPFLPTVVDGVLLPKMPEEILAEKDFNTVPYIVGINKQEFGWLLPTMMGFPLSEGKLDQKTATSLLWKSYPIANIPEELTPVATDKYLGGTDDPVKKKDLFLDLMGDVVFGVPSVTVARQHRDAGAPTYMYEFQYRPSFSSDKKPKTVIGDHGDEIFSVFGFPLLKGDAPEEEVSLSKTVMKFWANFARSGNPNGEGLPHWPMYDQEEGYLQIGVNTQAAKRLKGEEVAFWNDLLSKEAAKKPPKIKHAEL
The experiment in a line: Enzymatic hydrolysis by esterase (Km, Lineweaver-Burk). In kind it is biochemical.

Another data set is described as follows: Stability in water. The settings on record: pH 7.
A further data set has as its system human white blood cells. Briefly: Staining of lysed whole blood, fluorescence by flow cytometry. Format: cell-based. The protocol: (§2) After characterizing the various xanthene dyes prepared in accordance with this invention, one of the dyes (VBDB) was used to stain cells. The ability of VBDB to stain cells was compared with BCECF-AM, a membrane permeable esterase substrate (Molecular Probes) and fluorescein diacetate (FDA). […] After incubation, the tube was centrifuged. This procedure specifically lyses red blood cells leaving the white cells intact and viable. The supernatant was removed and the white blood cells which remained were washed twice and resuspended in blood cell diluent (1 mL, Diagnostic Technology, Inc.). The cell concentration and the percentage of dead cells were ascertained by counting the cells manually using a fluorescent microscope and a hemacytometer; acridine orange and ethidium bromide were used to stain live and dead cells respectively.
(§3) Four samples of approximately 1.7×10^6 cells then were placed in polystyrene tubes. To each tube was added one of the following solutions (1 mL): FDA (1 uM) BCECF-AM (1 uM), VBDB (0.8 uM), or VBDB (8.0 uM). The dye solutions were prepared by diluting a stock solution of each dye (1-8 mM in DMSO) into blood cell diluent. The tubes were kept at room temperature for 30 minutes. The samples were washed three times and resuspended in blood cell diluent (1 mL).
(§4) A bandpass 530/30 emission filter was used for both FDA and BCECF-AM, while a bandpass 660/20 emission filter was used for VBDB. Data from 10,000 events were acquired from each of these samples immediately after staining, one hour after staining, and two hours after staining.
(§5) Referring to FIG. 2, VBDB, BCECF-AM and FDA were compared as vital dyes by staining lysed whole blood and examining the fluorescence by flow cytometry. […] Four samples of cells were incubated with BCECF AM (1 uM), FDA (1 uM) and VBDB (0.8 uM, 8.0 uM). The cells were analyzed immediately after staining (t=0), after one hour (t=1) and after two hours (t=2).
(§6) The data in FIG. 2 also was used to quantitate the "live" cells and the "dead" cells. […] It was assumed the live cells were those cells which retained the dye (the right peak) and that dead cells were those cells whose membranes had become leaky (the left peak). By setting the gate to the immediate left of the main peak, the "dead" cells to the left of the gate were counted.

Assay in data set [4]: as above
As to conditions: human, white blood cells. In kind it is cell-based, human. How it is done:
as §2, §3, §4, §5, §6

Data set [5] is described as follows: Membrane permeability of diacetates. The settings on record: diacetate esters.
The conditions of data set [6]: pH 7.
The conditions of data set [7]: not told.

With `CCCC(=O)Oc1ccc2c3c(ccc2c1)C1(OS(=O)(=O)c2ccccc21)c1ccc2cc(OC(=O)CCC)ccc2c1O3` [Compound 14, Vita Blue dibutyrate], the “Abs Max” value in data set [1] (pH 7.2) is 480 nm. Besides, the “ε (extinction coefficient)” value in [1] and in data set [1] (listed as dibutyrate derivative of compound 9) was 5900 M⁻¹ cm⁻¹ each time. This molecule returned an excitation maximum in data set [2] of 480 nm. Also, the “EM Max” value is 552 nm in data set [2] (pH 7.2) and 550 nm in data set [2] (pH 7.2, listed as dibutyrate derivative of compound 9). In addition, in [2] (pH 7.2), the “Quantum Yield” value was found to be 0.03. Besides, the esterase substrate result in [3] was “good substrate”. In addition, in data set [3] (pH 8.0), the specific activity is 2.5 (ug substrate) (min)^-1 (mg enzyme)^-1. Besides, the stability in water result in “Stability in water” was “relatively stable in water at pH 7”. Besides, the “retention of initial fluorescence by stained cells over time” value with human white blood cells (0.8 uM dye) was “maintained their initial fluorescence”; with human white blood cells (8 uM dye, after one hour) it was “actually increased their fluorescence slightly after one hour”. For the same molecule, the “coefficient of variation (CV) in the fluorescence histogram” value worked out at 39% in the data set on human white blood cells (0.8 uM, t=0); 43% in the data set with human white blood cells (0.8 uM, t=1 h); 46% in the data set with human white blood cells (0.8 uM, t=2 h); 30% in the data set on human white blood cells (8 uM, t=0); 35% in the data set on human white blood cells (8 uM, t=1 h); 34% with human white blood cells (8 uM, t=2 h). The “number of leaky cells, comparison of BCECF and VBDB” value in the data set with human white blood cells (after two hours, higher VBDB concentration) is “the same number of "leaky" cells after two hours”. In the data set on human white blood cells (higher concentration (8 uM)), the “deleterious effect on cells” value is “did not seem to be deleterious to the cells”. The percentage of dead (leaky) cells at 0 h, 0.8 µM in data set [4] (0.8 uM, t=0) turned out to be 14%. Besides, the percentage of dead (leaky) cells at 1 h, 0.8 µM in data set [4] (0.8 uM, t=1 h) came out at 18%. This molecule gave a percentage of dead (leaky) cells at 2 h, 0.8 µM in data set [4] (0.8 uM, t=2 h) of 20%. The percentage of dead (leaky) cells at 8 µM in data set [4] (8 uM, second value, printed t=2) worked out at 17%. The molecule further showed a percentage of dead (leaky) cells at 0 h, 8 µM in data set [4] (8 uM, t=0) of 12%. Moreover, the percentage of dead (leaky) cells at 2 h, 8 µM in data set [4] (8 uM, t=2 h) was found to be 22%.

As for `CC(=O)Oc1ccc2c3c(ccc2c1)C1(OS(=O)(=O)c2ccccc21)c1ccc2cc(OC(C)=O)ccc2c1O3` [Diacetate ester of compound 9, Vita Blue diacetate], in [5], the membrane permeability entry is listed as “neither diacetates were membrane permeable”. The esterase substrate result in data set [3] was “esterase substrates”.

For “Sulfonefluorescein diacetate [Diacetate ester of compound 2]”, in data set [6], the stability in water entry is recorded as “relatively stable in water at pH 7”. Also, the esterase substrate entry in data set [3] is given as “esterase substrates”. Besides, in [7], the membrane permeability result is listed as “neither diacetates were membrane permeable”.
